Earlier results on two compounds are cited in publication PMC4959752, “Pharmacokinetics in Wistar Rats of 5-[(4-Carboxybutanoyl)Amino]-2-Hydroxybenzoic Acid: A Novel Synthetic Derivative of 5-Aminosalicylic Acid (5-ASA) with Possible Anti-Inflammatory Activity” (PLoS ONE, 2016).

The structures appear in SMILES notation.

For one data set, the system named is plasma protein. The following applies: comparison value; cited from earlier work.
The conditions of data set [1]: literature value; cited from earlier work.

Consider `Nc1ccc(O)c(C(=O)O)c1` [5-ASA, 5-aminosalicylic acid], for which the protein binding in the data set on plasma protein is listed as 40%.
Turning to `CC(=O)Oc1ccccc1C(=O)O` [aspirin], the plasma half-life in data set [1] is given as 15 min.
